Patent US20230123334A1, “AMINO LIPID COMPOUND, PREPARATION METHOD THEREFOR, AND APPLICATION THEREOF” (SHENZHEN SHENXIN BIOTECHNOLOGY CO., LTD., priority 2020, published 2023)

How the values were obtained:
HEK293 cells [1] = assay: Preliminary screening as mRNA vectors, EGFP mRNA transfection of HEK293 cells; type: cell-based; details: HEK293 cells, 96-well plates, EGFP mRNA 50 ng per well; percentage of GFP fluorescent cells relative to total number of cells (Hoechst)
How it was run: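 Screening format: EGFP mRNA transfection (50 ng/well) into HEK293 in 10% FBS-supplemented DMEM. Percent green fluorescent cells, normalised to Hoechst nuclear count, gave the value; Lipofectamine2000 was the reference transfectant.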

HEK293 cells [2] = assay: Preliminary screening as DNA vectors, GFP transfection of HEK293 cells; type: cell-based; details: HEK293 cells; lipid/DOPE liposome with 75 ng plasmid DNA (psin-EGFP-IRES-Puro); number of cells expressing GFP divided by total number of nuclei (Hoechst)
How it was run: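 First, amino lipid and DOPE were vortexed in sodium acetate buffer (pH 5.6) to form liposomes. Next, these were held with 75 ng EGFP plasmid at room temperature for 30 min. Finally, HEK293 cells were added, cultured at 37° C., Hoechst-stained, and GFP+/total nuclei scored by imaging.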

SMILES | Absolute mRNA transfection efficiency in HEK293 cells (HEK293 cells [1]) [%] | Absolute DNA transfection efficiency in HEK293 cells (HEK293 cells [2]) [%]
CCCCCCCCCCCCCCCCCCNc1nc(NCCCCCCCC)nc(NCCN2CCOCC2)n1 [Compound N8N18D2] | 7.0 | 1.7
CCCCCCCCCCCCSc1nc(NCCN2CCOCC2)nc(SCCCCCCCCCC)n1 [Compound S10S12D2] | 0.0 | 2.4
CCCCCCCCCCCCCCCSc1nc(NCCN2CCOCC2)nc(SCCCCCCCCCCC)n1 [Compound S11S15D2] | 0.0 | 0.3
CCCCCCCCCCCCCCCCSc1nc(NCCN2CCOCC2)nc(SCCCCCCCCCCCCCCCC)n1 [Compound S16S16D2] | 0.2 | 1.1
CCCCCCCCCCCCN(CCCCCCCCCCCC)c1nc(NCCN2CCOCC2)nc(N(CCCCCCCCCCCC)CCCCCCCCCCCC)n1 [2N12^2N12D2] | 1.9 | 0.0
CCCCCCCCCCCCCCCCCCSc1nc(NCCN2CCN(C)CC2)nc(SCCCCCCCC)n1 [Compound S8S18D5] | 27.5 | 9.6
CCCCCCCCCCCCCCCCNc1nc(NCCCCCCC)nc(NCCCN2CCOCC2)n1 [Compound N7N16D8] | 0.0 | 0.1
CCCCCCCCCCCCCCCCCCNc1nc(NCCCCCCC)nc(NCCN2CCCCC2)n1 [Compound N7N18D4] | 0.1 | 0.2
CCCCCCCCCCCCCNc1nc(NCCN2CCN(C)CC2)nc(N(CCCCCCCCCCCC)CCCCCCCCCCCC)n1 [N13^2N12D5] | 4.9 | 0.0
CCCCCCCCCCCCCCCNc1nc(NCCCCCCCCC)nc(NCCCN2CCN(C)CC2)n1 [Compound N9N15D9] | 1.1 | 0.9
CCCCCCCCCCCNc1nc(NCCCCCCCCCCC)nc(NCCN2CCOCC2)n1 [Compound N11N11D2] | 1.4 | 0.0
CCCCCCCCCNc1nc(NCCCCCCC)nc(NCCN2CCN(C)CC2)n1 [Compound N7N9D5] | 0.2 | 0.0
CCCCCCCCCCCCCCCNc1nc(NCCCCCCCCC)nc(NCCN(CC)CC)n1 [Compound N9N15D7] | 0.8 | 0.0
CCCCCCCCCCCCCCCNc1nc(NCCCCCCCCCCCC)nc(NCCN2CCOCC2)n1 [Compound N12N15D2] | 0.4 | 0.3
CCCCCCCCCCCCCCCCCCNc1nc(NCCCCCCCCCCCCCCCC)nc(NCCN(C)C)n1 [Compound N16N18D1] | 0.0 | 1.2
CCCCCCCCCCCNc1nc(NCCCCCCC)nc(NCCCN2CCOCC2)n1 [Compound N7N11D8] | 0.0 | 0.0
CCCCCCCCCCCCNc1nc(NCCCCCCCCC)nc(NCCN2CCCC2)n1 [Compound N9N12D3] | 4.3 | 0.6
CCCCCCCCCCCCCNc1nc(NCCCCCCC)nc(NCCN2CCN(C)CC2)n1 [Compound N7N13D5] | 0.9 | 0.9
CCCCCCCCCCCCCCCCCCSc1nc(NCCN2CCOCC2)nc(SCCCCCCCCCCC)n1 [Compound S11S18D2] | 0.1 | 0.2
CCCCCCCCCNc1nc(NCCCCCCC)nc(NCCCN(C)C)n1 [Compound N7N9D6] | 0.0 | 0.0
CCCCCCCCCCCCNc1nc(NCCN(C)C)nc(N(CCCCCCCCCCCC)CCCCCCCCCCCC)n1 [N12^2N12D1] | 2.8 | 0.5
CCCCCCCCCCCCCCCCCCNc1nc(NCCCCCCCCCCC)nc(NCCN2CCCCC2)n1 [Compound N11N18D4] | 2.3 | 1.9
CCCCCCCCCCCNc1nc(NCCCCCCCC)nc(NCCCN2CCN(C)CC2)n1 [Compound N8N11D9] | 0.0 | 0.0
CCCCCCCCCCCCCNc1nc(NCCCCCCCCC)nc(NCCN2CCCC2)n1 [Compound N9N13D3] | 4.6 | 1.0

SMILES | Absolute mRNA transfection efficiency in HEK293 cells (HEK293 cells [1]) [%] | Absolute DNA transfection efficiency in HEK293 cells (HEK293 cells [2]) [%]
CCCCCCCCCCCCCCCCCCNc1nc(NCCCCCC)nc(NCCN2CCOCC2)n1 [Compound N6N18D2] | 0.9 | 0.6
CCCCCCCCCNc1nc(NCCCCCC)nc(NCCN2CCOCC2)n1 [Compound N6N9D2] | 0.0 | 0.0
CCCCCCCCCCCCCCCCSc1nc(NCC2CCN(C)CC2)nc(SCCCCCCCCCCCCCC)n1 [Compound S14S16D10] | 0.8 | 2.7
CCCCCCCCCCCCCNc1nc(NCCCCCCCCCCCCC)nc(NCCCN(C)C)n1 [Compound N13N13D6] | 0.2 | 2.5
CCCCCCCCCCCCCCCCSc1nc(NCCN2CCCCC2)nc(SCCCCCCCC)n1 [Compound S8S16D4] | 2.1 | 10.2
CCCCCCCCCCCCCCCCNc1nc(NCCCCCCCCCCCCCCCC)nc(NCCCN2CCOCC2)n1 [Compound N16N16D8] | 1.6 | 0.5
CCCCCCCCCSc1nc(NCCN2CCCCC2)nc(SCCCCCCCCC)n1 [Compound S9S9D4] | 2.1 | 14.5
CCCCCCCCCCCCCCCCNc1nc(NCCCCCC)nc(NCCN2CCCC2)n1 [Compound N6N16D3] | 2.8 | 0.7
CCCCCCCCCNc1nc(NCCCCCCC)nc(NCCN2CCCCC2)n1 [Compound N7N9D4] | 0.0 | 0.0
CCCCCCCCCCCCCCCCNc1nc(NCCCCCCCCCCCC)nc(NCCN2CCCC2)n1 [Compound N12N16D3] | 3.3 | 1.2
CCCCCCCCCCCCN(CCCCCCCCCCCC)c1nc(NCCCCCC)nc(NCCCN2CCOCC2)n1 [N6^2N12D8] | 0.0 | 0.0
CCCCCCCCCCCCCCCNc1nc(NCCCCCCCCCCCCC)nc(NCCN2CCN(C)CC2)n1 [Compound N13N15D5] | 0.8 | 0.2
CCCCCCCCCCCCN(CCCCCCCCCCCC)c1nc(NCCCCCC)nc(NCCN2CCCCC2)n1 [N6^2N12D4] | 0.0 | 0.2
CCCCCCCCCCCCCCCNc1nc(NCCCCCCCC)nc(NCCCN(C)C)n1 [Compound N8N15D6] | 0.0 | 1.3
CCCCCCCCCCCCCCCCCCNc1nc(NCCCCCCC)nc(NCCCN2CCN(C)CC2)n1 [Compound N7N18D9] | 0.5 | 2.1
CCCCCCCCCCCCCCCCNc1nc(NCCCCCCCCCCCCCCCC)nc(NCCN2CCN(C)CC2)n1 [Compound N16N16D5] | 0.0 | 0.0
CCCCCCCNc1nc(NCCCCCC)nc(NCCN2CCN(C)CC2)n1 [Compound N6N7D5] | 0.4 | 0.0
CCCCCCCCCCCCCCCSc1nc(NCCN2CCCCC2)nc(SCCCCCCCCCC)n1 [Compound S10S15D4] | 0.7 | 7.5
CCCCCCCCCCCCCCCCCCSc1nc(NCCCN2CCOCC2)nc(SCCCCCCCCC)n1 [Compound S9S18D8] | 12.4 | 27.0
CCCCCCCCCCCCCCCCCCNc1nc(NCCCCCCC)nc(NCCN(CC)CC)n1 [Compound N7N18D7] | 0.0 | 0.0
CCCCCCCCCCSc1nc(NCCCN2CCN(C)CC2)nc(SCCCCCCCCC)n1 [Compound S9S10D9] | 46.6 | 34.1
CCCCCCCCCCCCCNc1nc(NCCCCCCCC)nc(NCCN2CCCCC2)n1 [Compound N8N13D4] | 0.2 | 0.7
CCCCCCCCCCCCCCCCNc1nc(NCCCCCCCCCCCC)nc(NCCCN2CCOCC2)n1 [Compound N12N16D8] | 0.9 | 0.7
CCCCCCCCCCCCCCCCNc1nc(NCCCCCCCCCCCC)nc(NCCN(C)C)n1 [Compound N12N16D1] | 4.4 | 2.6
